{
  "source": "patent US11286228B2",
  "about": "“Stilbene derivative and method for preparing same” (Ozchela Inc., priority 2016, dated 2022)",
  "key": {"cyclophilin": {"molecular_target": "cyclophilin", "assay": "Cis-trans isomerase inhibitory activity (chymotrypsin-coupled Suc-AAPF-pNA cleavage, absorbance 390 nm)", "format": "biochemical", "method_in_brief": "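Cyclophilin isomerase activity coupled to chymotrypsin cleavage of Suc-AAPF-pNA: chymotrypsin cuts only the trans peptide, so isomerase-driven cis-to-trans conversion increases cleavage within a fixed period. Released product read by absorbance at 390 nm with compound present alongside cyclophilin.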"}, "hepatitis C virus": {"test_system": "hepatitis C virus", "assay": "Antiviral activity in HCV replicon cells (Renilla luciferase)", "format": "cell-based", "conditions": "HCV replicon cells", "method_in_brief": "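Replicon cells stably carrying the HCV genome, pre-cultured 24 h at 37 °C, treated with compound for 72 h, then lysed on ice. Renilla luciferase luminescence used as a measure of HCV genome level, expressed relative to DMSO-treated cells, from which EC50 was derived.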"}, "[1]": {"test_system": "mitochondria obtained from hepatocytes", "assay": "Inhibitory activity on calcium-induced mitochondrial swelling (absorbance 520 nm)", "method_in_brief": "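Mitochondria isolated from hepatocytes by Dounce disruption, 700×g clearing and 12,000×g pelleting. Swelling induced with calcium and followed as absorbance at 520 nm; activity expressed as IC50.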"}, "[2]": {"assay": "Cytotoxicity, MTT test in HCV replicon cells", "format": "cell-based", "method": "The cytotoxicity of the stilbene derivatives was measured. Replicon cells that stably replicate a hepatitis C virus genome were attached to a 96-well plate and cultured in a CO2 incubator at 37° C. for 24 hr. The replicon cells cultured for one day were washed with a phosphate buffered saline (PBS) solution, treated with the compounds of the present invention, and then cultured for 72 hr. Thereafter, through the MTT [3-(4,5-dimethylthiazol-2-yl)-2,5-diphenyltetrazolium bromide] cytotoxicity test, CC50 values of the compounds of the present invention were measured. The CC50 values of the compounds of the present invention were 200 μM or more."}, "[3]": {"conditions": "cyclophilin, chymotrypsin, Suc-AAPF-pNA, read-out: Test Example 1: cis-trans isomerase inhibitory activity (IC50)"}, "[4]": {"conditions": "Hepatitis C virus, 72 hr, Renilla luciferase, relative to DMSO, read-out: Test Example 3: antiviral activity (EC50)"}, "[5]": {"conditions": "Hepatocyte, calcium-induced swelling of extracted mitochondria, read-out: Test Example 4: inhibiting mitochondrial swelling (IC50)"}, "[6]": {"conditions": "read-out: Test Example 1: cis-trans isomerase inhibitory activity (IC50) group"}, "[7]": {"conditions": "Hepatitis C virus, read-out: Test Example 3: antiviral activity (EC50) group"}, "[8]": {"conditions": "Hepatocyte, read-out: Test Example 4: activity on inhibiting mitochondrial swelling (IC50) group"}},
  "note": "Like-named read-outs stand apart in the source and are kept apart here.",
  "data": [
    {"molecule": "CCCCOC(=O)c1ccccc1C=Cc1ccc(CC(C)(C)C)cc1", "note": "[Compound 64]", "values": [
      {"measurement": "IC50", "setting": "cyclophilin; [3]", "result": "≤ 0.02", "unit": "µM"},
      {"measurement": "EC50", "setting": "hepatitis C virus; [4]", "result": "< 0.5", "unit": "µM"},
      {"measurement": "IC50", "setting": "[1]; [5]", "result": "< 5", "unit": "µM"},
      {"measurement": "CC50 at 72 h", "setting": "[2]", "result": 320, "unit": "µM"}
    ]},
    {"molecule": "CCCCOC(=O)c1c(C)cccc1C=Cc1ccc(CC(C)(C)C)cc1", "note": "[Compound 65]", "values": [
      {"measurement": "IC50", "setting": "cyclophilin; [3]", "result": "0.02 to 0.2", "unit": "µM"},
      {"measurement": "EC50", "setting": "hepatitis C virus; [4]", "result": "0.5 to 5", "unit": "µM"},
      {"measurement": "IC50", "setting": "[1]; [5]", "result": "5 to 50", "unit": "µM"},
      {"measurement": "CC50 at 72 h", "setting": "[2]", "result": 284, "unit": "µM"}
    ]},
    {"molecule": "CCCCOC(=O)c1c(C=Cc2ccc(CC(C)(C)C)cc2)cccc1CC", "note": "[Compound 66]", "values": [
      {"measurement": "IC50", "setting": "cyclophilin; [3]", "result": "0.02 to 0.2", "unit": "µM"},
      {"measurement": "EC50", "setting": "hepatitis C virus; [4]", "result": "0.5 to 5", "unit": "µM"},
      {"measurement": "IC50", "setting": "[1]; [5]", "result": "5 to 50", "unit": "µM"},
      {"measurement": "CC50 at 72 h", "setting": "[2]", "result": 245, "unit": "µM"}
    ]},
    {"molecule": "Cc1cccc(C(=O)O)c1C=Cc1ccc(CC(C)(C)C)cc1", "note": "[Compound 152]", "values": [
      {"measurement": "IC50", "setting": "cyclophilin; [6]", "result": "≤ 0.02", "unit": "µM"},
      {"measurement": "EC50", "setting": "hepatitis C virus; [7]", "result": "< 0.5", "unit": "µM"},
      {"measurement": "IC50", "setting": "[1]; [8]", "result": "< 5", "unit": "µM"}
    ]},
    {"molecule": "CC(C)(C)Cc1ccc(C=Cc2cc(O)ccc2C(=O)O)cc1", "note": "[Compound 153]", "values": [
      {"measurement": "IC50", "setting": "cyclophilin; [6]", "result": "0.02 to 0.2", "unit": "µM"},
      {"measurement": "EC50", "setting": "hepatitis C virus; read-out: Test Example 3: antiviral activity (EC50) group", "result": "0.5 to 5", "unit": "µM"},
      {"measurement": "IC50", "setting": "[1]; read-out: Test Example 4: activity on inhibiting mitochondrial swelling (IC50) group", "result": "5 to 50", "unit": "µM"}
    ]},
    {"molecule": "CC(C)(C)Cc1ccc(C=Cc2cc(N)ccc2C(=O)O)cc1", "note": "[Compound 154]", "values": [
      {"measurement": "IC50", "setting": "cyclophilin; [6]", "result": "0.02 to 0.2", "unit": "µM"},
      {"measurement": "EC50", "setting": "hepatitis C virus; [7]", "result": "0.5 to 5", "unit": "µM"},
      {"measurement": "IC50", "setting": "[1]; [8]", "result": "5 to 50", "unit": "µM"}
    ]},
    {"molecule": "Cc1ccc(C(=O)O)c(C=Cc2ccc(CC(C)(C)C)cc2)c1", "note": "[Compound 155]", "values": [
      {"measurement": "IC50", "setting": "cyclophilin; [6]", "result": "0.02 to 0.2", "unit": "µM"},
      {"measurement": "EC50", "setting": "hepatitis C virus; [7]", "result": "0.5 to 5", "unit": "µM"},
      {"measurement": "IC50", "setting": "[1]; [8]", "result": "5 to 50", "unit": "µM"}
    ]}
  ]
}
